Assay results: patent US20210187130A1, “PET RADIOPHARMACEUTICALS FOR NON-INVASIVE EVALUATION OF HIF-2alpha” (THE BOARD OF REGENTS OF THE UNIVERSITY OF TEXAS SYSTEM, priority 2019, published 2021)
“Also recorded” adds a separate entry of the source.

Legend:
[1] = Tolerance (body weight) of tumorgraft-bearing mice; format: in vivo; settings: sunitinib at doses reproducing patient exposures
Description: (§1) This compound was evaluated in over 250 mice implanted with RCCs from 22 patients. […] This was also observed clinically.

ccRCC TGs = assay: PT2399 in RCC tumorgraft (patient-derived xenograft) platform; format: in vivo, mice
Description: as §1
Tumor samples collected fresh from kidney cancer surgeries were implanted orthotopically (in the kidney) of immunocompromised mice (NOD/SCID) within 3 hours. The samples were implanted without disaggregation or any additives, and it was previously shown that these tumorgrafts retained the histology, gene expression, DNA copy number alterations, mutations, and treatment responsiveness of the patient tumors. This platform of human RCC tumorgraft models was used to validate HIF-2α as a target in ccRCC (FIGS. 1 and 2). […] This same platform was used to evaluate the uptake of [^11C]PT2385 by ccRCC tumorgrafts expressing HIF-2α by PET imaging.

ccRCC = assay: Phase 1 clinical trial in patients with ccRCC; format: in vivo
Excerpt: The drug was remarkably well tolerated and a maximal tolerated dose (MTD) was not reached. […] The drug was also highly specific, and high-grade adverse effects were on-target, and expected, such as anemia (HIF-2 is known to regulate erythropoietin, and the effect could be overcome by exogenous erythropoietin administration). While the patient cohort evaluated had been extensively pretreated (typically ≥4 prior lines), activity of the inhibitor was still observed. Among 51 patients treated in the study at various dose levels, there was 1 complete response (CR), 6 partial response (PR), and 13 patients who remained on the study without progression beyond a year (FIG. 5). Overall, 42% of patients remained without progression for at least 4 months. […] Those data illustrated that even in highly pretreated RCC patients the HIF-2 Inhibitor was able to remain active.
The Phase I trial was accompanied by a companion study involving imaging and tissue acquisition.

[2] = among 51 patients, various dose levels

Row | Structure (SMILES) | body weight change of treated mice [1] | ccRCC tumorgrafts responsive (sensitive lines) (ccRCC TGs; RCCs from 22 patients, over 250 mice) | number of intermediate tumorgraft lines (ccRCC TGs; of all 22 tumorgraft lines) | number of resistant tumorgraft lines (ccRCC TGs; of all 22 tumorgraft lines) | number of sensitive tumorgraft lines (ccRCC TGs; of all 22 tumorgraft lines) | activity compared with sunitinib (ccRCC TGs; tumorgraft growth, sunitinib standard of care at the time) | complete response (CR), number of patients (ccRCC; [2]) | partial response (PR), number of patients (ccRCC; [2]) | patients remaining on study without progression beyond a year (ccRCC; [2]) | serious adverse effects requiring treatment discontinuation (ccRCC; any patient) | maximal tolerated dose (MTD) (ccRCC; dose escalation and dose expansion cohorts) | dose-limiting toxicities (ccRCC; human, in vivo) | high-grade adverse effects (on-target) (ccRCC; human, in vivo) | patients without progression for at least 4 months (ccRCC; overall) [%] | activity in HIF-2α deficient tumors (ccRCC; preliminary studies of patient tumor samples)
1 | CCN(CC)CCNC(=O)c1c(C)[nH]c(/C=C2\C(=O)Nc3ccc(F)cc32)c1C [sunitinib] | lost weight |  |  |  |  |  |  |  |  |  |  |  |  |  | 
2 | N#Cc1cc(F)cc(Oc2ccc(S(=O)(=O)C(F)F)c3c2CC(F)(F)[C@H]3O)c1 [PT2399] | did not | approximately 50% | 5 | 7 | 10 | more active than Sunitinib; also recorded: more effective than sunitinib |  |  |  |  |  |  |  |  | 
3 | CS(=O)(=O)c1ccc(Oc2cc(F)cc(C#N)c2)c2c1[C@H](O)C(F)(F)C2 [PT2385] |  |  |  |  |  |  | 1 | 6 | 13 | no serious adverse effects requiring treatment discontinuation | not reached | no dose-limiting toxicities | anemia | 42 | no activity
